According to ChEMBL document CHEMBL1201862, “PubChem BioAssay data set” (2004):
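Cultured in 96-well plates, cells were exposed to test compound for 48 hours across five concentrations. GI50: concentration for 50% inhibition of growth.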 Activity calls are given as the source filed them. No stated cut-off is given here; in the data, active = GI50 up to about 1.1 µM and inactive = higher.

Assays:
Test in all cases: NCI anticancer screen, dose series, 48 h
NCI/ADR-RES = tested on: NCI/ADR-RES
Malme-3M = tested on: Malme-3M
SK-MEL-28 = tested on: SK-MEL-28
OVCAR-5 = tested on: OVCAR-5
HCC 2998 = tested on: HCC 2998
PC-3 = tested on: PC-3
MDA-MB-231 = tested on: MDA-MB-231
HCT-116 = tested on: HCT-116
NCI-H23 = tested on: NCI-H23
MDA-MB-435 = tested on: MDA-MB-435
NCI-H522 = tested on: NCI-H522
HOP-62 = tested on: HOP-62
HOP-92 = tested on: HOP-92
SF-268 = tested on: SF-268
UO-31 = tested on: UO-31
SNB-19 = tested on: SNB-19
MCF7 = tested on: MCF7
NCI-H460 = tested on: NCI-H460
A498 = tested on: A498
SF-539 = tested on: SF-539

| SMILES | GI50 (NCI/ADR-RES) | GI50 (Malme-3M) | GI50 (SK-MEL-28) | GI50 (OVCAR-5) | GI50 (HCC 2998) | GI50 (PC-3) | GI50 (MDA-MB-231) | GI50 (HCT-116) | GI50 (NCI-H23) | GI50 (MDA-MB-435) | GI50 (NCI-H522) | GI50 (HOP-62) | GI50 (HOP-92) | GI50 (SF-268) | GI50 (UO-31) | GI50 (SNB-19) | GI50 (MCF7) | GI50 (NCI-H460) | GI50 (A498) | GI50 (SF-539) |
| --- | --- | --- | --- | --- | --- | --- | --- | --- | --- | --- | --- | --- | --- | --- | --- | --- | --- | --- | --- | --- |
| Nc1nc(SCc2ccccc2Cl)cc(C(=O)O)n1 | 33.4 µM (inactive) | 39.4 µM (inactive) | 87.3 µM (inactive) | 78 µM (inactive) | 59.2 µM (inactive) | 53.6 µM (inactive) | > 100 µM (inactive) | 54.5 µM (inactive) | 57.4 µM (inactive) | 73.1 µM (inactive) | 30.9 µM (inactive) | 63.1 µM (inactive) | 46.2 µM (inactive) | 52.7 µM (inactive) | 67 µM (inactive) | > 100 µM (inactive) | > 100 µM (inactive) | 41.5 µM (inactive) | > 100 µM (inactive) | – |
| CN1CCN(c2ccncc2S(=O)(=O)N2CCN(C)CC2)CC1 | > 100 µM (inactive) | > 100 µM (inactive) | > 100 µM (inactive) | > 100 µM (inactive) | – | > 100 µM (inactive) | > 100 µM (inactive) | > 100 µM (inactive) | > 100 µM (inactive) | > 100 µM (inactive) | > 100 µM (inactive) | > 100 µM (inactive) | > 100 µM (inactive) | > 100 µM (inactive) | > 100 µM (inactive) | > 100 µM (inactive) | > 100 µM (inactive) | > 100 µM (inactive) | > 100 µM (inactive) | > 100 µM (inactive) |
| Cc1cc(NS(=O)(=O)c2ccc(NC(NC(=O)OC(C)C)(C(F)(F)F)C(F)(F)F)cc2)nc(C)n1 | > 100 µM (inactive) | > 100 µM (inactive) | > 100 µM (inactive) | > 100 µM (inactive) | > 100 µM (inactive) | > 100 µM (inactive) | > 100 µM (inactive) | > 100 µM (inactive) | > 100 µM (inactive) | > 100 µM (inactive) | – | > 100 µM (inactive) | > 100 µM (inactive) | > 100 µM (inactive) | – | > 100 µM (inactive) | > 100 µM (inactive) | > 100 µM (inactive) | > 100 µM (inactive) | > 100 µM (inactive) |
| CCCCn1c2c(c3ccccc3c1=O)C(=O)c1ccccc1-2 | > 100 µM (inactive) | > 100 µM (inactive) | > 100 µM (inactive) | > 100 µM (inactive) | – | > 100 µM (inactive) | 94 µM (inactive) | > 100 µM (inactive) | 45.2 µM (inactive) | > 100 µM (inactive) | 37.8 µM (inactive) | 19.9 µM (inactive) | > 100 µM (inactive) | 29 µM (inactive) | 2.79 µM (inactive) | – | 15 µM (inactive) | – | > 100 µM (inactive) | 49.1 µM (inactive) |
| COc1ccc(/C=C2\N=C(SC)N(CN3CCCCC3)C2=O)cc1 | > 100 µM (inactive) | > 100 µM (inactive) | > 100 µM (inactive) | > 100 µM (inactive) | – | > 100 µM (inactive) | > 100 µM (inactive) | > 100 µM (inactive) | > 100 µM (inactive) | > 100 µM (inactive) | > 100 µM (inactive) | 58.7 µM (inactive) | 0.347 µM (active) | > 100 µM (inactive) | > 100 µM (inactive) | > 100 µM (inactive) | > 100 µM (inactive) | – | 42.4 µM (inactive) | – |
| CN(C1=NCCO1)c1cccc2c1CCCC2 | 3.6 µM (inactive) | 2.76 µM (inactive) | 6.01 µM (inactive) | 3.9 µM (inactive) | 3.79 µM (inactive) | 2.25 µM (inactive) | 1.73 µM (inactive) | 2.99 µM (inactive) | 3.73 µM (inactive) | 3.64 µM (inactive) | 4.16 µM (inactive) | 7.08 µM (inactive) | – | 5.33 µM (inactive) | – | 8.04 µM (inactive) | 4.51 µM (inactive) | 4.01 µM (inactive) | 3.71 µM (inactive) | 3.25 µM (inactive) |
| CS(=O)(=O)c1nc(-c2cc3c(c(S(C)(=O)=O)n2)CCCC3)cc2c1CCCC2 | > 64.3 µM (inactive) | > 100 µM (inactive) | > 100 µM (inactive) | > 100 µM (inactive) | > 100 µM (inactive) | > 100 µM (inactive) | 56.5 µM (inactive) | > 100 µM (inactive) | > 63 µM (inactive) | > 100 µM (inactive) | > 39.8 µM (inactive) | 21 µM (inactive) | – | 11.8 µM (inactive) | 0.048 µM (active) | > 55.7 µM (inactive) | > 100 µM (inactive) | – | > 100 µM (inactive) | > 65.2 µM (inactive) |
| CCOC(=O)c1nc2cc(C(F)(F)F)ccc2nc1Oc1ccc(C(=O)OC)cc1 | > 100 µM (inactive) | > 100 µM (inactive) | > 100 µM (inactive) | > 100 µM (inactive) | > 100 µM (inactive) | > 100 µM (inactive) | > 100 µM (inactive) | > 100 µM (inactive) | – | > 100 µM (inactive) | 69.2 µM (inactive) | – | > 100 µM (inactive) | > 100 µM (inactive) | > 100 µM (inactive) | > 100 µM (inactive) | > 100 µM (inactive) | > 100 µM (inactive) | > 100 µM (inactive) | > 100 µM (inactive) |
